Test results: the supplement of paper PMC10307832

Experiments:
Test in all cases: relative viability (nuclei count vs DMSO), 5 days (fraction); higher = more cells survive
A549 = system: A549
Summary of the method: (§1)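 Values are medians from duplicate plates. Each reflects relative viability, defined as the nuclei count of treated wells over that of vehicle wells. Lung cancer cell lines in 1536-well plates were pin-tool dosed one day after seeding with one drug alone or with a fixed anchor-drug dose plus five library-drug doses (not always all listed) in √10 steps, then fixed, stained and imaged at 4× after 5 days.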

Calu-6 = system: Calu-6
Summary of the method: as §1

EBC-1 = system: EBC-1
Summary of the method: as §1

IA-LM = system: IA-LM
Summary of the method: as §1

NCI-H1299 = system: NCI-H1299
Summary of the method: as §1

NCI-H1703 = system: NCI-H1703
Summary of the method: as §1

NCI-H1563 = system: NCI-H1563
Summary of the method: as §1

Cc1cnc(-c2cnc(NCCNc3ccc(C#N)cn3)nc2-c2ccc(Cl)cc2Cl)[nH]1 + CC1(C)CCC(c2ccc(Cl)cc2)=C(CN2CCN(c3ccc(C(=O)NS(=O)(=O)c4ccc(N[C@H](CCN5CCOCC5)CSc5ccccc5)c(S(=O)(=O)C(F)(F)F)c4)cc3)CC2)C1 [Navitoclax] (partner 0.5 µM)
relative viability (A549; first compound 0.08 µM): 1.23 | relative viability (A549; first compound 0.253 µM): 1.18 | relative viability (A549; first compound 0.8 µM): 1.21 | relative viability (A549; first compound 2.53 µM): 1.18 | relative viability (Calu-6; first compound 0.08 µM): 0.826 | relative viability (Calu-6; first compound 0.253 µM): 0.773 | relative viability (Calu-6; first compound 0.8 µM): 0.789 | relative viability (Calu-6; first compound 2.53 µM): 0.717 | relative viability (EBC-1; first compound 0.08 µM): 0.399 | relative viability (EBC-1; first compound 0.253 µM): 0.351 | relative viability (EBC-1; first compound 0.8 µM): 0.542 | relative viability (EBC-1; first compound 2.53 µM): 0.23 | relative viability (IA-LM; first compound 0.08 µM): 0.78 | relative viability (IA-LM; first compound 0.253 µM): 0.71 | relative viability (IA-LM; first compound 0.8 µM): 0.809 | relative viability (IA-LM; first compound 2.53 µM): 0.695 | relative viability (NCI-H1299; first compound 0.08 µM): 1.04 | relative viability (NCI-H1299; first compound 0.253 µM): 1.02 | relative viability (NCI-H1299; first compound 0.8 µM): 1.09 | relative viability (NCI-H1299; first compound 2.53 µM): 1.04 | relative viability (NCI-H1703; first compound 0.08 µM): 1.15 | relative viability (NCI-H1703; first compound 0.253 µM): 1.03 | relative viability (NCI-H1703; first compound 0.8 µM): 1.2 | relative viability (NCI-H1703; first compound 2.53 µM): 1.08

Cc1cnc(-c2cnc(NCCNc3ccc(C#N)cn3)nc2-c2ccc(Cl)cc2Cl)[nH]1 + CC(C)C[C@H](NC(=O)[C@H](Cc1ccccc1)NC(=O)c1cnccn1)B(O)O [Bortezomib] (partner 0.002 µM)
relative viability (Calu-6; first compound 0.08 µM): 0.933 | relative viability (Calu-6; first compound 0.253 µM): 0.996 | relative viability (Calu-6; first compound 0.8 µM): 1.06 | relative viability (Calu-6; first compound 2.53 µM): 1.03 | relative viability (EBC-1; first compound 0.08 µM): 0.607 | relative viability (EBC-1; first compound 0.8 µM): 0.546 | relative viability (EBC-1; first compound 2.53 µM): 0.509 | relative viability (IA-LM; first compound 0.08 µM): 0.849 | relative viability (IA-LM; first compound 0.253 µM): 0.855 | relative viability (IA-LM; first compound 0.8 µM): 1.06 | relative viability (IA-LM; first compound 2.53 µM): 0.891 | relative viability (NCI-H1299; first compound 0.08 µM): 1.05 | relative viability (NCI-H1299; first compound 0.253 µM): 1 | relative viability (NCI-H1299; first compound 0.8 µM): 1.02 | relative viability (NCI-H1299; first compound 2.53 µM): 0.969 | relative viability (NCI-H1563; first compound 0.08 µM): 0.831 | relative viability (NCI-H1563; first compound 0.253 µM): 0.944 | relative viability (NCI-H1563; first compound 0.8 µM): 0.827 | relative viability (NCI-H1563; first compound 2.53 µM): 0.914 | relative viability (NCI-H1703; first compound 0.08 µM): 0.337 | relative viability (NCI-H1703; first compound 0.253 µM): 0.352 | relative viability (NCI-H1703; first compound 0.8 µM): 0.5 | relative viability (NCI-H1703; first compound 2.53 µM): 0.699

O=C(O)CCCCC(CCSCc1ccccc1)SCc1ccccc1 (configuration not stated) [CPI-613] + CC1(C)CCC(c2ccc(Cl)cc2)=C(CN2CCN(c3ccc(C(=O)NS(=O)(=O)c4ccc(N[C@H](CCN5CCOCC5)CSc5ccccc5)c(S(=O)(=O)C(F)(F)F)c4)cc3)CC2)C1 [Navitoclax] (partner 0.5 µM)
relative viability (A549; first compound 5 µM): 1.11 | relative viability (A549; first compound 15.81 µM): 0.977 | relative viability (A549; first compound 50 µM): 1.09 | relative viability (A549; first compound 158.11 µM): 0.308 | relative viability (A549; first compound 500 µM): 0.0559 | relative viability (Calu-6; first compound 5 µM): 0.72 | relative viability (Calu-6; first compound 15.81 µM): 0.744 | relative viability (Calu-6; first compound 50 µM): 0.595 | relative viability (Calu-6; first compound 158.11 µM): 0.107 | relative viability (Calu-6; first compound 500 µM): 0.0529 | relative viability (EBC-1; first compound 5 µM): 0.373 | relative viability (EBC-1; first compound 15.81 µM): 0.404 | relative viability (EBC-1; first compound 50 µM): 0.397 | relative viability (EBC-1; first compound 158.11 µM): 0.0793 | relative viability (EBC-1; first compound 500 µM): 0.0379 | relative viability (IA-LM; first compound 5 µM): 0.692 | relative viability (IA-LM; first compound 15.81 µM): 0.707 | relative viability (IA-LM; first compound 50 µM): 0.685 | relative viability (IA-LM; first compound 158.11 µM): 0.0974 | relative viability (IA-LM; first compound 500 µM): 0.0132 | relative viability (NCI-H1299; first compound 5 µM): 1.05 | relative viability (NCI-H1299; first compound 15.81 µM): 1.05 | relative viability (NCI-H1299; first compound 50 µM): 1.06 | relative viability (NCI-H1299; first compound 158.11 µM): 1.01 | relative viability (NCI-H1299; first compound 500 µM): 1.04 | relative viability (NCI-H1703; first compound 5 µM): 1.01 | relative viability (NCI-H1703; first compound 15.81 µM): 0.967 | relative viability (NCI-H1703; first compound 50 µM): 0.829 | relative viability (NCI-H1703; first compound 158.11 µM): 0.144 | relative viability (NCI-H1703; first compound 500 µM): 0.0899
